“Also recorded” adds a separate entry of the source. d = 2'-deoxy (DNA); r = 2'-OH (RNA)
Assays:
Assay type in all cases: in vivo, mouse
[1] = test system: choroidal neovascularization; test: Laser-induced choroidal neovascularization (CNV) volume in mice; details: for CNV volume in wild-type mice versus PBS: FIG. 7/8, 0.25 μg into the vitreous humor immediately after laser injury; for CNV in TLR3−/− mice: FIG. 7, differences not statistically significant; for effect on choroidal neovascularization (CNV): FIG. 1, 0.2-2 μg, poly I:C vs control poly dI:dC, loxoribine vs control PBS; for ability to suppress CNV in IL-10−/− mice / ability to suppress CNV in IL-12−/− mice: FIG. 6, 2 μg; for ability to suppress CNV in IL-10−/− mice: IL-10−/− mice versus wild-type; for ability to suppress CNV in IL-12−/− mice: IL-12−/− mice versus wild-type
Description: All animal experiments were in accordance with the guidelines of the University of Kentucky IACUC and the Association for Research in Vision and Ophthalmology. Male C57BL/6J mice (Jackson Laboratory) between 6 and 8 weeks of age were used to minimize variability. The sources for the other mouse strains were: TLR3−/−, IL-10−/−, IL-12−/−, IFNγ−/− (Jackson Laboratory), IFNAR-1−/− (gift of H. Virgin, Washington University), TLR7−/− (gift of D. Golenback, University of Massachusetts), TLR9−/− (gift of E. Pearlman, Case Western Reserve University), VEGFR1 tyrosine kinase−/− (gift of M. Shibuya, University of Tokyo), Trif−/− (Trif deficient Lps2 mice from The Jackson Laboratories). For all procedures, anesthesia was achieved by intraperitoneal injection of 50 mg/kg ketamine hydrochloride (Ft. Dodge Animal Health) and 10 mg/kg xylazine (Phoenix Scientific), and pupils were dilated with topical 1% tropicamide (Alcon Laboratories).
(§1) Laser photocoagulation (532 nm, 200 mW, 100 ms, 75 μm) (OcuLight GL, Iridex Corporation) was performed (volume studies: 3/eye; protein analyses/flow cytometry: 12/eye) on both eyes of each animal to induce CNV (choroidal neovascularization). CNV volumes were measured by scanning laser confocal microscope (TCS SP, Leica) with 0.5% FITC-Griffonia simplicifolia Isolectin B4 (Vector Laboratories) or 0.5% FITC-rat antibody against mouse CD31 (BD Biosciences). Volumes obtained by lectin and CD31 staining were highly correlated (r^2=0.95).
Also tested were shorter non-targeted siRNAs: a 5+2 length nucleotide (5 nucleotides plus a 2 nucleotide overhang, with one strand having the sequence UAAGGdTdT and the other strand having the sequence CCUUAdTdT), and a 11+2 length nucleotide (11 nucleotides plus a 2 nucleotide overhang, with one strand having the sequence […]dTdT and the other strand having the sequence […]dTdT).
Because the probability of each laser lesion developing CNV is influenced by the group to which it belongs, the mouse, the eye, and the laser spot, the mean lesion volumes were compared using a linear mixed model with a split plot repeated measures design. The whole plot factor was the genetic group to which the animal belonged while the split plot factor was the eye. Statistical significance was determined at the 0.05 level. Post hoc comparison of means was constructed with a Bonferroni adjustment for multiple comparisons. ELISA measurements were compared by Student's t-test.

IL-12 = IL-12 protein ELISA in RPE/choroid after laser injury; details: FIG. 4; 2 μg; wild-type mice; 1 day after laser injury
Experimental: as §1, with “(r^2=0.95). […]” for “(r^2=0.95).”
(§2) IL-10 and IL-12 protein levels were measured by ELISA (Peprotech) according to the manufacturer's instructions, as were IFN-α, IFN-β and IFN-γ (PBL InterferonSource). Total protein was measured according to Biorad.
(§3) Because the probability of each laser lesion developing CNV is influenced by the group to which it belongs, the mouse, the eye, and the laser spot, the mean lesion volumes were compared using a linear mixed model with a split plot repeated measures design. […] Statistical significance was determined at the 0.05 level. […]
IFN-α and IFN-β were measured by ELISA and normalized to total protein. […] IFN-γ was measured by ELISA (PBL InterferonSource) and IL-12 was measured by ELISA (eBioscience) and normalized to total protein. *P<0.05.

IL-10 = IL-10 protein ELISA in RPE/choroid after laser injury; details: FIG. 4; 2 μg; wild-type mice; 3 days after laser injury
Experimental: as §1, with “(r^2=0.95). […]” for “(r^2=0.95).”
as §2, §3

[2] = dose-dependent, intravitreous immediately after laser injury, P<0.05

Compound	CNV volume in wild-type mice versus PBS ([1]; P<0.05)	CNV in TLR3−/− mice ([1]; 0.25 μg intravitreous)	CNV in VEGFR1 tk−/− mice versus PBS ([1]; FIG. 8, 0.25 μg intravitreous, VEGFR1 tyrosine kinase−/− mice, P<0.05)	effect on choroidal neovascularization in wild-type C57BL/6J mice ([1]; FIG. 14, intravitreous immediately after laser injury, dose-dependent, P<0.05)	IL-12 protein expression in the RPE/choroid (IL-12)	IL-10 protein expression in the RPE/choroid (IL-10)	effect on choroidal neovascularization (CNV) [1, 2]	ability to suppress CNV in IL-10−/− mice [1]	ability to suppress CNV in IL-12−/− mice [1]
Bevasiranib: siRNA against VEGF-A; sense ACCUCACCAAGGCCAGCACdTdT, antisense GUGCUGGCCUUGGUGAGGUdTdT (sense ACCUCACCAAGGCCAGCACTT; antisense GUGCUGGCCUUGGUGAGGUTT; sugars from the 5' end r19 d2, backbone not given here)	essentially equally effective in suppressing CNV	non of them suppressed CNV							
Sirna-027: siRNA against VEGFR-1; sense CUGAGUUUAAAAGGCACCCdTdT, antisense GGGUGCCUUUUAAACUCAGdTdT (sense CUGAGUUUAAAAGGCACCCTT; antisense GGGUGCCUUUUAAACUCAGTT; sugars from the 5' end r19 d2, backbone not given here)	essentially equally effective in suppressing CNV; also recorded: significantly lower than control	non of them suppressed CNV	suppressed CNV						
recombinant mouse IFNγ: recombinant mouse IFNγ (eBioscience)				reduced choroidal neovascularization					
C=CCn1c(=O)n([C@@H]2O[C@H](CO)[C@@H](O)[C@H]2O)c2nc(N)[nH]c(=O)c21 [Loxoribine]					induced	induced	reduced CNV	markedly reduced	markedly reduced
Poly I:C					induced	induced	reduced CNV	markedly reduced	markedly reduced
